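Values below derive from 48-hour exposures of cells grown in 96-well plates, with endpoints linearly interpolated between the two concentrations bracketing the appropriate inhibition level. Abbreviation: GI50, concentration required for 50% inhibition of growth. TGI: concentration producing complete growth inhibition.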
Key:
Assay in all cases: NCI tumour cell line growth inhibition, 48 h
786-0 renal = test system: 786-0 renal
CCRF-CEM leukemia = test system: CCRF-CEM leukemia
EKVX NSCLC = test system: EKVX NSCLC
LOX IMVI melanoma = test system: LOX IMVI melanoma
RXF 393 renal = test system: RXF 393 renal
SF-295 CNS = test system: SF-295 CNS
SK-OV-3 ovarian = test system: SK-OV-3 ovarian
SNB-19 CNS = test system: SNB-19 CNS
SW-620 colon = test system: SW-620 colon

Compound	TGI (786-0 renal) [µM]	TGI (CCRF-CEM leukemia) [µM]	TGI (EKVX NSCLC) [µM]	TGI (LOX IMVI melanoma) [µM]	TGI (RXF 393 renal) [µM]	TGI (SF-295 CNS) [µM]	TGI (SK-OV-3 ovarian) [µM]	TGI (SNB-19 CNS) [µM]	TGI (SW-620 colon) [µM]	GI50 (786-0 renal) [nM]	GI50 (CCRF-CEM leukemia) [nM]	GI50 (LOX IMVI melanoma) [nM]	GI50 (SF-295 CNS) [nM]	GI50 (SW-620 colon) [nM]	GI50 (EKVX NSCLC) [nM]	GI50 (RXF 393 renal) [nM]	GI50 (SK-OV-3 ovarian) [nM]	GI50 (SNB-19 CNS) [nM]
CC(C)N(C(=O)C12C3C4C5C3C1(C(=O)N(C(C)C)C(C)C)C5C42)C(C)C (stereo not drawn)	> 100	> 68.3	> 100	> 69.5	> 100	> 100	> 100	> 100	> 88.2									
Cc1nc(=O)n2c(c1C(=O)Nc1ccc(Cl)cc1)NCCC2	> 100	> 100	> 100	> 100	> 100	> 100	> 100	> 100	> 100									
O=C1CCC(=O)C(C(=O)CCC(=O)Nc2ccc(Cl)cc2)C1 (stereo not drawn)	> 100	> 100	> 100	> 100		> 100	> 100	> 100	> 100									
COc1ccc(CN[C@H]2CCc3cc(OC)c(OC)c(OC)c3-c3ccc(SC)c(=O)cc32)c(OC)c1OC	> 100	5.46	> 100	15.7	0.0497	> 100	> 100	> 100	> 100	28.5	10.7	< 10	16.7	< 10				
CCC[CH2][Sn]1([CH2]CCC)[O]N=Cc2ccccc2[O]1	1.89		2.39	1.35	1.05	2.13	6.15	2.33	1.11	608		377	930	241	1110	224	2960	1090
COC(=O)C([O][Ge]([CH3])([CH3])[CH3])c1ccccc1 (stereo not drawn)	> 100	> 100	> 100	> 100		> 100	> 100	> 100	> 100	> 100000	> 100000	> 100000	> 100000	> 100000	> 100000		> 100000	> 100000
CC1(C)CC(=O)C=C(NC(=O)c2ccccc2)C1	> 100	> 100	> 100	> 100	> 100	> 100	> 100	> 100	> 100									
COc1ccc2nc(NC(=O)C(=O)C(C#N)c3ccc(CC#N)cc3)sc2c1 (stereo not drawn)	> 100	> 100	> 100	> 100	> 100	> 100	> 100	> 100	> 100									
Cc1ccc(/C=C2\CN(C(=O)CCN3CCC(=NO)CC3)C/C(=C\c3ccc(C)cc3)C2=O)cc1	3.42		8.07	0.397	3.05			4.43		1680		185			2720	1640		1580
CCOc1c(Cc2ccccc2)c(=O)n2c3ccccc3n3c(=O)n(C)c(=O)c1c23	> 100		> 100	> 100	> 100	> 100	> 100	> 100	> 100									

— PubChem BioAssay (NCI)
